Tests used:
[1] = molecular target: T1, 5-hydroxytryptamine receptor 1A (Rattus norvegicus, UniProt P19327); assay: Displacement of [3H]8-OH-DPAT from 5HT1A receptor in rat brain cortex; assay type: tissue-based
T1 sequence (P19327 whole entry): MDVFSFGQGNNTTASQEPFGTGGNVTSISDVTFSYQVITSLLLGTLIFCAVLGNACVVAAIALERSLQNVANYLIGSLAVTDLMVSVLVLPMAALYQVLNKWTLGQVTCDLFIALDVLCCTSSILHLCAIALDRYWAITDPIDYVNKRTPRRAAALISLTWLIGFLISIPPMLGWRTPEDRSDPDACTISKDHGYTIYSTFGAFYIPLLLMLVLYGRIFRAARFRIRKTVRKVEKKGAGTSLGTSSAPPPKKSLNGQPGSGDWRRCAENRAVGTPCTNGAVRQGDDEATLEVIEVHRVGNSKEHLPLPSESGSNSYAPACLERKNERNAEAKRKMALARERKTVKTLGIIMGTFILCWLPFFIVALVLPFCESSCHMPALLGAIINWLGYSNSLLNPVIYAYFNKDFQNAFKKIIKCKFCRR

D(3) dopamine receptor = D(3) dopamine receptor (Rattus norvegicus, UniProt P19020); assay: Displacement of [3H]7-OH-DPAT from dopamine D3 receptor in rat olfactory tubercle; assay type: tissue-based
[2] = molecular target: T2, Adrenergic receptor alpha-1 (Rattus norvegicus, UniProt P15823+P23944+P43140); assay: Displacement of [3H]prazosin from adrenergic alpha1 receptor in rat brain cortex; assay type: tissue-based
T2 sequence (P15823 whole entry): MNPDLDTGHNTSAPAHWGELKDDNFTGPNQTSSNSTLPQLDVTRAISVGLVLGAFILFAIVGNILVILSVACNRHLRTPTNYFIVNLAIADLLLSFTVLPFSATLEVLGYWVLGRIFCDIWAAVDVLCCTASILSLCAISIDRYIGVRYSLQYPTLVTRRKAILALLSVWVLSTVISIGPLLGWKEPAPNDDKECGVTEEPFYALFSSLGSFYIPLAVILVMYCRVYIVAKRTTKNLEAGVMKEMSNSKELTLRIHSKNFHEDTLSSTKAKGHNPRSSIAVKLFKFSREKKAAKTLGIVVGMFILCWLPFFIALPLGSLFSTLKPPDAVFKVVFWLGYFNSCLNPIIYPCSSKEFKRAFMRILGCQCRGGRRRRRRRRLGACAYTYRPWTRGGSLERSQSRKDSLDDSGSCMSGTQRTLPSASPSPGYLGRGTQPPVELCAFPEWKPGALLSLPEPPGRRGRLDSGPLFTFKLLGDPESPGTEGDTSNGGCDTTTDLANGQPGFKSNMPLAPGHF
T2 sequence (P23944 whole entry): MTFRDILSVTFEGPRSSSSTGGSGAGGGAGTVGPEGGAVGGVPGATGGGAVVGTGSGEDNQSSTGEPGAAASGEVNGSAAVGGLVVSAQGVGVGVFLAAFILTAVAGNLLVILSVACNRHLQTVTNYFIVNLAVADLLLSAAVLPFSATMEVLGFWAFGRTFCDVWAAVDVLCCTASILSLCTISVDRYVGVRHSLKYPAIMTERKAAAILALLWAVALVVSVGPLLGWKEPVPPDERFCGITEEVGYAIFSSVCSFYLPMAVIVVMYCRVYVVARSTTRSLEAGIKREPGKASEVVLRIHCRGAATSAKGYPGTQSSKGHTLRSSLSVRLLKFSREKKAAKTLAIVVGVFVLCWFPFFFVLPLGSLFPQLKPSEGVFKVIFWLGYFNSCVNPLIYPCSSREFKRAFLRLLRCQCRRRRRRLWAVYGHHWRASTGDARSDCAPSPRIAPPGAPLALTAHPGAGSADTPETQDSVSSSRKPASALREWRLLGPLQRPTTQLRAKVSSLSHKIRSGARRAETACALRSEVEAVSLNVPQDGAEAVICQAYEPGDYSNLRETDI
T2 sequence (P43140 whole entry): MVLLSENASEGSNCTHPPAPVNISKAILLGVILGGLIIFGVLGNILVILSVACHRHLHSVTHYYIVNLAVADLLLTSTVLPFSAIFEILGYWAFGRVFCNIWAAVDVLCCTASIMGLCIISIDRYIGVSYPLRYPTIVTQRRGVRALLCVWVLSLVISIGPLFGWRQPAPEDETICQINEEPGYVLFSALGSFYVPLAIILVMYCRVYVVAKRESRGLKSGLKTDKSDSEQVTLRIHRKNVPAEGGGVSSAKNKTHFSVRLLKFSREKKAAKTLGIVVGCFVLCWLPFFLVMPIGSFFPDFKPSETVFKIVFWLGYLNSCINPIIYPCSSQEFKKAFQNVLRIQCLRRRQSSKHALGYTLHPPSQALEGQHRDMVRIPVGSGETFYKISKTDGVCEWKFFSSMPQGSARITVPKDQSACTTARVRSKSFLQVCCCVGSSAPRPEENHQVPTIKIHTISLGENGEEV

Mus musculus [3] = assay: Toxicity in po dosed mouse assessed as catalepsy; assay type: organism-based; conditions: in vivo
[4] = molecular target: D(3) dopamine receptor (Homo sapiens) (UniProt P35462); assay: Agonist activity at dopamine D3 receptor (unknown origin) at 10 uM relative to dopamine
[5] = molecular target: D(2) dopamine receptor (Homo sapiens) (UniProt P14416); assay: Agonist activity at dopamine D2 receptor (unknown origin) at 10 uM relative to dopamine
Mus musculus [6] = assay: Antipsychotic activity in po dosed mouse assessed as reversal of DOI-induced head twitch activity; assay type: functional
Mus musculus [7] = assay: Selectivity ratio of ED50 for po dosed mouse assessed as catalepsy to ED50 for po dosed mouse assessed as reversal of MK-801-induced hyperactivity
[8] = molecular target: T3, 5-hydroxytryptamine receptor 1A (Homo sapiens) (UniProt P08908); assay: Agonist activity at […] receptor (unknown origin) at 10 uM relative to 5-HT
T3 sequence (whole entry): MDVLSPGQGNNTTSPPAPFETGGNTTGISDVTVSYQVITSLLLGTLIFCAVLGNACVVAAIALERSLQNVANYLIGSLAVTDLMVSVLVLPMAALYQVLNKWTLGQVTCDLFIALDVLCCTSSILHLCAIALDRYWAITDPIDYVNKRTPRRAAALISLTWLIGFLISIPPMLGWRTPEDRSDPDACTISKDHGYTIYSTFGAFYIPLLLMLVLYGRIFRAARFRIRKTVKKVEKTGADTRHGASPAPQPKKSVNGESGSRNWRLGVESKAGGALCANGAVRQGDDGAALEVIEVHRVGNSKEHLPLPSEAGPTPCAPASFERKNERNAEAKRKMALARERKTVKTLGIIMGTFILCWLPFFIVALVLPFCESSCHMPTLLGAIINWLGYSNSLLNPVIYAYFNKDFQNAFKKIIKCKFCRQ

[9] = molecular target: 5-hydroxytryptamine receptor 2A (Homo sapiens) (UniProt P28223); assay: Antagonist activity at […] receptor (unknown origin) at 10 uM
Mus musculus [10] = assay: Selectivity ratio of ED50 for po dosed mouse assessed as catalepsy to ED50 for po dosed mouse assessed as reversal of apomorphine-induced climbing activity
Mus musculus [11] = assay: Antipsychotic activity in po dosed mouse assessed as reversal of MK-801-induced hyperactivity; assay type: functional
Mus musculus [12] = assay: Antipsychotic activity in po dosed mouse assessed as reversal of apomorphine-induced climbing activity; assay type: functional

D(3) dopamine receptor, sequence (P19020 whole entry): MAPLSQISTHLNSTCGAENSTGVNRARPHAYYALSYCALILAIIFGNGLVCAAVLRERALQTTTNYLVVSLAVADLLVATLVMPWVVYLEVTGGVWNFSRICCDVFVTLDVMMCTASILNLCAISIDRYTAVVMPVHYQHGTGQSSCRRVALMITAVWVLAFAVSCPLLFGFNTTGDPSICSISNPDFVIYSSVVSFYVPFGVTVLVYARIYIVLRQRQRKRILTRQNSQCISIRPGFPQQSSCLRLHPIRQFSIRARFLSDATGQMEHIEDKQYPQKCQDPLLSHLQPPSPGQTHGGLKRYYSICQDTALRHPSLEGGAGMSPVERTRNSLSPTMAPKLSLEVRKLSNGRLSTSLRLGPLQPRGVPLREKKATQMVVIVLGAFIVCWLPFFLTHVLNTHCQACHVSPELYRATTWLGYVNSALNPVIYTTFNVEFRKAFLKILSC
D(3) dopamine receptor (Homo sapiens), sequence (P35462 whole entry): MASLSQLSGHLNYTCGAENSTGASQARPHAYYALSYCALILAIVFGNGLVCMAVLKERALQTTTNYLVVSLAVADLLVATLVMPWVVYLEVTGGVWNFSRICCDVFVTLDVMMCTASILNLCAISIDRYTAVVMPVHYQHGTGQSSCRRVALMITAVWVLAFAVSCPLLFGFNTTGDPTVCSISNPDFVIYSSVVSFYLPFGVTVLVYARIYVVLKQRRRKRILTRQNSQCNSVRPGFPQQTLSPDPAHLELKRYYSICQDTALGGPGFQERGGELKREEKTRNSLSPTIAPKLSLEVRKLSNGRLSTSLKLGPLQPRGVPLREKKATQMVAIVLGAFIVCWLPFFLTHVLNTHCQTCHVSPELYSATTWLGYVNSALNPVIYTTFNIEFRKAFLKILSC
D(2) dopamine receptor (Homo sapiens), sequence (P14416 whole entry): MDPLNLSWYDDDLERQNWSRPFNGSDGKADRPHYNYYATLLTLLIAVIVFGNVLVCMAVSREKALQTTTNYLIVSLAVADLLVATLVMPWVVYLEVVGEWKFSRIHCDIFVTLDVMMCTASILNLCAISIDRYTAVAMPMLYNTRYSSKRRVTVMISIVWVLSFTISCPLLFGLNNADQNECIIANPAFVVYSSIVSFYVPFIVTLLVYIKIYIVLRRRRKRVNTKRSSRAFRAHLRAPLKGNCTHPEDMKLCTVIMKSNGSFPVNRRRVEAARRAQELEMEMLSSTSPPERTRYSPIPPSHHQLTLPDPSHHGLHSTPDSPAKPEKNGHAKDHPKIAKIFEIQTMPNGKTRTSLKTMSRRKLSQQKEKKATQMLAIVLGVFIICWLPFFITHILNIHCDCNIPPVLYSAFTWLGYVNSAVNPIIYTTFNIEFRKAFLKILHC
5-hydroxytryptamine receptor 2A (Homo sapiens), sequence (P28223 whole entry): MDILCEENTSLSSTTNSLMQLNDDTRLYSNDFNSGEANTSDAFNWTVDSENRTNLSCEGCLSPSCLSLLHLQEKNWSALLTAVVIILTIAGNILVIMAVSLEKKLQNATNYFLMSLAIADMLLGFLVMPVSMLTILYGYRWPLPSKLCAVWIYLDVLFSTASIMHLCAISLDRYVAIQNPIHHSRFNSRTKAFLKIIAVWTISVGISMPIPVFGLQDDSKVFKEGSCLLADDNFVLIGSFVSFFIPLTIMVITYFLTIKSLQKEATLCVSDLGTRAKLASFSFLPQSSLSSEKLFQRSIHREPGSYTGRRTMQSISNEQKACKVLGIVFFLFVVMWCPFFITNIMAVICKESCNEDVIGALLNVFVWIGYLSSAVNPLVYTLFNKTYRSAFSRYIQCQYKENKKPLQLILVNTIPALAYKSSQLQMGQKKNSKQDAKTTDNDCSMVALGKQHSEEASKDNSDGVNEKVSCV

Row | Compound | Ki [1] | Ki (D(3) dopamine receptor) | Ki [2] | ED50 (Mus musculus [3]) | Activity [4] | Activity [5] | ED50 (Mus musculus [6]) | Ratio ED50 (Mus musculus [7]) | Activity [8] | inhibition [9] | Ratio ED50 (Mus musculus [10]) | ED50 (Mus musculus [11]) | ED50 (Mus musculus [12])
1 | O=S(=O)(c1ccc(C(F)(F)F)cc1)N1CCC(CN2CCC(c3noc4cc(F)ccc34)CC2)CC1 | 21.9 nM | 237 nM | 1098.2 nM |  |  |  |  |  |  |  |  |  | 
2 | O=[N+]([O-])c1ccc(S(=O)(=O)N2CCC(CN3CCC(c4noc5cc(F)ccc45)CC3)CC2)cc1 | 16.9 nM | 16.6 nM | 2356.2 nM | 43.53 mg/kg | 3.7% | 5.9% | 0.57 mg/kg | 61.3 | 8.2% | 100% | 108.8 | 0.71 mg/kg | 0.4 mg/kg

— ChEMBL document CHEMBL3739370, “Synthesis and evaluation of amide, sulfonamide and urea benzisoxazole derivatives as potential atypical antipsychotics” (Medchemcomm, 2015)
